What was measured:
Type in all cases: cell-based, mouse
adiponectin = assay: Adiponectin expression in 3T3-L1 adipocytes; conditions: 48 h
Experimental: (§1) 3T3-L1 pre-adipocytes were incubated at a density of 8000 cells/cm^2 (10 cm^2 dish) and grown in Dulbecco's modified Eagle's medium (DMEM) containing 10% FBS and antibiotics (adipocyte medium) at 37° C. in 5% CO2 in air. Confluent pre-adipocytes were induced to differentiate with a standard differentiation medium consisting of DMEM-F10 (1:1, vol/vol) medium supplemented with 1% fetal bovine serum (FBS), 1 μM dexamethasone, isobutylmethylxanthine (IBMX) (0.5 mM) and antibiotics (1% Penicillin-Streptomycin). Pre-adipocytes were maintained in this differentiation medium for 3 days and subsequently cultured in adipocyte medium. Cultures were re-fed every 2-3 days to allow 90% cells to reach fully differentiation before conducting chemical treatment. […] Cell viability was measured via trypan blue exclusion. Adipocyte and muscle 18s, TNFα, IL-6, IL-8, IL-15 and adiponectin were quantitatively measured using a smart cycler real-time PCR system (Cepheid, Sunnyvale, Calif.) with a TaqMan 1000 Core Reagent Kit (Applied Biosystems, Branchburg, N.J.). […] Reactions of quantitative RT-PCR for standards and unknown samples were also performed according to the instructions of Smart Cycler System (Cepheid, Sunnyvale, Calif.) and TaqMan Real Time PCR Core Kit (Applied Biosystems, Branchburg, N.J.). The mRNA quantitation for each sample was further normalized using the corresponding 18s quantitation.

3T3-L1 adipocytes [1] = assay: Intracellular ROS generation in cultured adipocytes (H2-DCFDA); conditions: α-tocopherol 1 μmol/L added, all groups
Experimental: 3T3-L1 preadipocytes were incubated at a density of 8000 cells/cm^2 (10 cm^2 dish) and grown in Dulbecco's modified Eagle's medium (DMEM) containing 10% FBS and antibiotics (adipocyte medium) at 37° C. in 5% CO2 in air. Confluent preadipocytes were induced to differentiate with a standard differentiation medium consisting of DMEM-F10 (1:1, vol/vol) medium supplemented with 1% FBS, 1 μM dexamethasone, IBMX (0.5 mM) and antibiotics (1% Penicillin-Streptomycin). Preadipocytes were maintained in this differentiation medium for 3 days and subsequently cultured in adipocyte medium. Cultures were re-fed every 2-3 days to allow 90% of cells to reach full differentiation before conducting chemical treatment. Chemicals were freshly diluted in adipocyte medium before treatment. Cells were washed with fresh adipocyte medium, re-fed with medium containing the different treatments, and incubated at 37° C. in 5% CO2 in air before analysis. Cell viability was measured via trypan blue exclusion. […] Cells were loaded with H2-DCFDA (2 μmol/L) 30 minute before the end of the incubation period (48 h). After washing twice with PBS, cells were scraped and disrupted by sonication on ice (20 s). Fluorescence (emission 543 nm or 527 nm) and DNA content were then measured as described previously. The intensity of fluorescence was expressed as arbitrary units per ng DNA.

3T3-L1 adipocytes [2] = assay: Intracellular Ca2+ in cultured adipocytes (fura-2)
Experimental: 3T3-L1 preadipocytes were incubated at a density of 8000 cells/cm^2 (10 cm^2 dish) and grown in Dulbecco's modified Eagle's medium (DMEM) containing 10% FBS and antibiotics (adipocyte medium) at 37° C. in 5% CO2 in air. Confluent preadipocytes were induced to differentiate with a standard differentiation medium consisting of DMEM-F10 (1:1, vol/vol) medium supplemented with 1% FBS, 1 μM dexamethasone, IBMX (0.5 mM) and antibiotics (1% Penicillin-Streptomycin). Preadipocytes were maintained in this differentiation medium for 3 days and subsequently cultured in adipocyte medium. Cultures were re-fed every 2-3 days to allow 90% of cells to reach full differentiation before conducting chemical treatment. Chemicals were freshly diluted in adipocyte medium before treatment. Cells were washed with fresh adipocyte medium, re-fed with medium containing the different treatments, and incubated at 37° C. in 5% CO2 in air before analysis. Cell viability was measured via trypan blue exclusion. [Ca^2+]i in adipocytes was measured using a fura-2 dual-wavelength fluorescence imaging system. Cells were plated in 35-mm dishes […]). […] Cells were loaded with fura-2 acetoxymethyl ester (fura-2 AM) (10 μmol/L) in the same buffer for 2 h at 37° C. in a dark incubator with 5% CO2. To remove extracellular dye, cells were rinsed with HBSS three times and then post-incubated at room temperature for an additional 1 h for complete hydrolysis of cytoplasmic fura-2 AM. The dishes with dye-loaded cells were mounted on the stage of Nikon TMS-F fluorescence inverted microscope with a Cohu model 4915 charge-coupled device (CCD) camera. Fluorescent images were captured alternatively at excitation wavelengths of 340 and 380 nm with an emission wavelength of 520 nm. After establishment of a stable baseline, the responses to 1α, 25-(OH)2-D3 was determined. [Ca^2+]i was calculated using a ratio equation as described previously. Each analysis evaluated responses of 5 representative whole cells. Images were analyzed with […]2 version 4.62 imaging software (Intracellular Imaging, Cincinnati, Ohio). […]

3T3-L1 adipocytes [3] = assay: Cell proliferation / DNA synthesis in cultured adipocytes (CyQUANT)
Experimental: 3T3-L1 preadipocytes were incubated at a density of 8000 cells/cm^2 (10 cm^2 dish) and grown in Dulbecco's modified Eagle's medium (DMEM) containing 10% FBS and antibiotics (adipocyte medium) at 37° C. in 5% CO2 in air. Confluent preadipocytes were induced to differentiate with a standard differentiation medium consisting of DMEM-F10 (1:1, vol/vol) medium supplemented with 1% FBS, 1 μM dexamethasone, IBMX (0.5 mM) and antibiotics (1% Penicillin-Streptomycin). Preadipocytes were maintained in this differentiation medium for 3 days and subsequently cultured in adipocyte medium. Cultures were re-fed every 2-3 days to allow 90% of cells to reach full differentiation before conducting chemical treatment. Chemicals were freshly diluted in adipocyte medium before treatment. Cells were washed with fresh adipocyte medium, re-fed with medium containing the different treatments, and incubated at 37° C. in 5% CO2 in air before analysis. Cell viability was measured via trypan blue exclusion. Cells were plated in DMEM with different treatment in duplicate in 96-well plates. After 48 h, a CyQUANT Cell Proliferation Kit (Molecular Probes, Eugene, Oreg.) was used following the manufacturer's protocol. a microplate fluorometer (Packard Instrument Company, Inc., Downers Grove, Ill.) was used to measure CyQUANT fluorescence. Cell viability was determined by Trypan blue exclusion examination.

IL-15 = IL-15 expression in 3T3-L1 adipocytes; conditions: 1 μmol/L α±tocopherol added to 100 nmol/L H2O2, 48 h; P=0.043
Experimental: as §1

Cc1c(C)c2c(c(C)c1O)CC[C@@](C)(CCC[C@H](C)CCC[C@H](C)CCCC(C)C)O2 [α-tocopherol]
effect on adiponectin production (adiponectin): increased | effect on ROS production (3T3-L1 adipocytes [1]): inhibited | effect on H2O2 induced increase in [Ca2+]i (3T3-L1 adipocytes [2]; α-tocopherol 1 μmol/L plus H2O2, 4 hours): reversed | effect on glucose induced increase in [Ca2+]i (3T3-L1 adipocytes [2]; α-tocopherol 1 μmol/L plus glucose 30 mmol/L, 4 hours): partially blocked | effect on DNA synthesis (3T3-L1 adipocytes [3]; α-tocopherol 1 μmol/L added, all groups): inhibited | effect on H2O2 induced DNA synthesis (3T3-L1 adipocytes [3]; α-tocopherol 1 μmol/L or nifedipine 10 μmol/L plus H2O2, 48 hours): completely blocked | increase in IL-15 as compared to H2O2-treated cells (IL-15): 2.2 fold

From patent US20110038948A1, “Methods of Reducing the Production of Reactive Oxygen Species and Methods of Screening or Identifying Compounds and Compositions that Reduce the Production of Reactive Oxygen Species” (UNIVERSITY OF TENNESSEE RESEARCH FOUNDATION, priority 2005, published 2011)
